Legend:
[1] = system: Pseudomonas aeruginosa (Pa, ATCC 15442); test: Method A: AOAC Use Dilution test for Disinfectants (Method 964.02); assay type: cell-based; conditions: 1 minute
Description: (§1) In this Example, 3-HPPA was evaluated for biocidal efficacy against Sa, Pa, and Ec using three different test methods. PAA was also evaluated for biocidal efficacy for comparison. The test methods were performed using 400 ppm of hard water as diluent, in the presence of 5% organic matter.
(§2) Method A: AOAC Use Dilution test for Disinfectants (Official Methods of Analysis. Methods 955.15—Staphylococcus aureus. Method 964.02—Pseudomonas aeruginosa. Posted September 2013). Killing efficacy is a qualitative result, reported as number of tubes showing microbial growth and total number carriers tested.

[2] = system: Staphylococcus aureus (Sa, ATCC 6538); test: Method A: AOAC Use Dilution test for Disinfectants (Method 955.15); assay type: cell-based; conditions: 1 minute
Description: as §1, §2

[3] = system: Staphylococcus aureus (Sa, ATCC 6538); test: Method A+: modified quantitative AOAC Use Dilution test; assay type: cell-based; conditions: 750 ppm, 1 minute, 400 ppm hard water, 5% organic matter
Description: as §1
(§3) Method A^+: modified quantitative AOAC Use Dilution test for Disinfectants (Official Methods of Analysis. Methods 955.15—Staphylococcus aureus. Method 964.02—Pseudomonas aeruginosa. Posted September 2013). The number of surviving organisms on each carrier was quantitatively determined after the indicated contact time. No growth observed on the solid recovery medium means no survivors present on the carriers after exposure to the antimicrobial composition. A kill rate of 99.9999% is equivalent to a 6 log kill.

[4] = system: Pseudomonas aeruginosa (Pa, ATCC 15442); test: as above; assay type: cell-based; conditions: 750 ppm, 1 minute, 400 ppm hard water, 5% organic matter
Description: as §1, §3

[5] = Peracid stability by standard titration method; assay type: physicochemical
Excerpt: […] The H2O2 used is commercially available from Arkema under the tradename Perxoal 50EG and includes a small amount of stabilizer. The reaction proceeded until equilibrium was reached, in accordance with the reaction scheme recited above. The starting carboxylic acids were acetic acid, 3-hydroxy propanoic acid, 3-chloro-propanoic acid, 2-hydroxy-acetic acid (glycolic acid), 2-hydroxy-propanoic acid (lactic acid) and 2-oxo-propanoic acid. The 3-hydroxy propanoic acid and 3-chloro-propanoic acid generated non alpha-substituted peracids that are examples of the present technology. The other starting carboxylic acids generated peracids that are not within Formula 1 or Formula 2 and are comparative peracid examples.
Each of the resulting peracids were evaluated for odor. In addition, the resulting peracids were evaluated for stability using a standard titration method known to those skilled in the art.

[6] = system: Spores of Clostridium difficile (ATCC 43598); test: Quantitative Disk Carrier Test Method (QCT-2), EPA MB-31-03, sporicidal efficacy; assay type: cell-based; conditions: water hardness 400 ppm
Description: Different formulations containing 3-HPPA at different concentrations were prepared and evaluated for sporicidal efficacy against Cd. The 3-HPPA formulations were also compared to the sporicidal efficacy of different formulations containing peracetic acid (PAA). The test procedure for evaluating sporicidal efficacy was in accordance with the EPA test method in place in 2015: Quantitative Disk Carrier Test Method (QCT-2) Modified for Testing Antimicrobial Products Against Spores of Clostridium difficile (ATCC 43598) on Inanimate, Hard, Non-porous Surfaces (MB-31-03). This method mandates the presence of a high level of organic soil.

[7] = 750 ppm, 400 ppm hard water, 5% organic matter
[8] = reaction mixture 20.00% organic acid, 7.50% H2O2, 1.00% H2SO4, DI water

## CC(=O)OO [PAA, peracetic acid]
[1]; 750 ppm active
  Efficacy outcome, EPA UDT/MB-05-13 test method: efficacious
[1]; [7]
  Efficacy (Method A): tubes showing microbial growth / total carriers tested: 0/20
[2]; 750 ppm active
  Efficacy outcome, EPA UDT/MB-05-13 test method: efficacious
[2]; [7]
  Efficacy (Method A): tubes showing microbial growth / total carriers tested: 0/20
[3]
  Efficacy (Method A+), kill rate: >99.9999%
[4]
  Efficacy (Method A+), kill rate: >99.9999%
[5]; 0% H2SO4 (no acid catalyst), 17.00-20.00% organic acid, 7.8-8.5% H2O2
  Peracid at day 13: 1.44%
[5]; 1.00% H2SO4, between day 6 and day 13
  Peracid loss/day: 0.131%
[5]; [8]
  Peracid at day 6: 2.290%
  Peracid at day 13: 2.270%
[6]; peracid active 1844 ppm, contact time 2 minute
  Log10 reduction: 4.76
[6]; peracid active 2500 ppm, contact time 4 minute
  Log10 reduction: 4.37
[6]; peracid active 2500 ppm, contact time 4 minute, listed as PAA alone
  Log10 reduction: <4.37
[6]; peracid active 5000 ppm, contact time 4 minute
  Log10 reduction: 6.39

Reference: patent publication US10676430B2, “Non-alpha substituted peroxy acids and uses thereof” (Stepan Company, priority 2016, dated 2020)
